pIC50: −log10 of the molar value. Where two headings read alike, the source gives them in different places.
Key:
[1] = target: Activated CDK2/CyclinA (Homo sapiens, UniProt P24941); assay: Activated CDK2/CyclinA kinase inhibitory activity assay; type: biochemical; details: Example 10
Description: (§1) Activated CDK2/CyclinA (Brown et al, Nat. Cell Biol., 1, pp 438-443, 1999; Lowe, E. D., et al Biochemistry, 41, pp 15625-15634, 2002) is diluted to 125 pM in 2.5× strength assay buffer (50 mM MOPS pH 7.2, 62.5 mM β-glycerophosphate, 12.5 mM EDTA, 37.5 mM MgCl2, […], 2.5 mM DTT, 2.5 mM sodium orthovanadate, 0.25 mg/ml bovine serum albumin), and 10 μl mixed with 10 μl of histone substrate mix (60 μl bovine histone H1 (Upstate Biotechnology, 5 mg/ml), 940 μl H2O, 35 μCi γ^33P-ATP) and added to 96 well plates along with 5 μl of various dilutions of the test compound in DMSO (up to 2.5%). The reaction is allowed to proceed for 2 to 4 hours before being stopped with an excess of ortho-phosphoric acid (5 μl at 2%).
γ^33P-ATP which remains unincorporated into the histone H1 is separated from phosphorylated histone H1 on a Millipore MAPH filter plate. The wells of the MAPH plate are wetted with 0.5% orthophosphoric acid, and then the results of the reaction are filtered with a Millipore vacuum filtration unit through the wells. Following filtration, the residue is washed twice with 200 μl of 0.5% orthophosphoric acid. Once the filters have dried, 20 μl of Microscint 20 scintillant is added, and then counted on a Packard Topcount for 30 seconds. […]

[2] = target: T1, CDK1/CyclinB (Homo sapiens, UniProt P06493); assay: Activated CDK1/CyclinB kinase inhibitory activity assay; type: biochemical; details: Example 11, read-out: IC50 in the CDK2 assay (stated under the CDK1/CyclinB assay, Example 11)
T1 construct: purchased Upstate Discovery
Description: as §1
γ^33P-ATP which remains unincorporated into the histone H1 is separated from phosphorylated histone H1 on a Millipore MAPH filter plate. The wells of the MAPH plate are wetted with 0.5% orthophosphoric acid, and then the results of the reaction are filtered with a Millipore vacuum filtration unit through the wells. Following filtration, the residue is washed twice with 200 μl of 0.5% orthophosphoric acid. Once the filters have dried, 20 μl of Microscint 20 scintillant is added, and then counted on a Packard Topcount for 30 seconds. The % inhibition of the CDK2 activity is calculated and plotted in order to determine the concentration of test compound required to inhibit 50% of the CDK2 activity (IC50).
CDK1/CyclinB assay.is identical to the CDK2/CyclinA above except that CDK1/CyclinB (Upstate Discovery) is used and the enzyme is diluted to 6.25 nM.

[3] = tested on: HCT-116 cell line; assay: Anti-proliferative activity, Alamar Blue assay; type: cell-based; details: Homo sapiens, read-out: IC50 against the HCT-116 cell line
Description: The anti-proliferative activities of compounds of the invention can be determined by measuring the ability of the compounds to inhibition of cell growth in a number of cell lines. Inhibition of cell growth is measured using the Alamar Blue assay (Nociari, M. M, Shalev, A., Benias, P., Russo, C. Journal of Immunological Methods 1998, 213, 157-167). The method is based on the ability of viable cells to reduce resazurin to its fluorescent product resorufin. For each proliferation assay cells are plated onto 96 well plates and allowed to recover for 16 hours prior to the addition of inhibitor compounds for a further 72 hours. At the end of the incubation period 10% (v/v) Alamar Blue is added and incubated for a further 6 hours prior to determination of fluorescent product at […]. In the case of the non-proliferating cell assay cells are maintained at confluence for 96 hour prior to the addition of inhibitor compounds for a further 72 hours. The number of viable cells is determined by Alamar Blue assay as before. In addition, any morphological changes are recorded. All cell lines can be obtained from ECACC (European Collection of cell Cultures).
In particular, compounds of the invention were tested against the HCT-116 cell line (ECACC Reference: 91091005) derived from human colon carcinoma.

[4] = target: GSK3β (human) (Homo sapiens, UniProt P49841); assay: Inhibitory activity against Glycogen Synthase Kinase-3; type: biochemical
Description: GSK3β (human) is diluted to a 10× working stock in 50 mM Tris pH 7.5, 0.1 mM EGTA, 0.1 mM sodium vanadate, 0.1% β-mercaptoethanol, 1 mg/ml BSA. One unit equals the incorporation of 1 nmol of phosphate per minute phospho-glycogen synthase peptide 2 per minute.
In a final reaction volume of 25 μl, GSK3β (5-10 mU) is incubated with 8 mM MOPS 7.0, 0.2 mM EDTA, 20 μM […](p)EDEEE (phospho GS2 peptide), 10 mM MgAcetate and [γ-^33P-ATP] (specific activity approx 500 cpm/pmol, concentration as required). The reaction is initiated by the addition of Mg^2+[γ-^33P-ATP]. After incubation for 40 minutes at room temperature the reaction is stopped by the addition of 5 μl of a 3% phosphoric acid solution. 10 μl of the reaction is spotted onto a P30 filter mat and washed 3 times for 5 minutes in 50 mM phosphoric acid and once in methanol prior to drying and counting.

[5] = target: T2, AuroraB (Homo sapiens, UniProt Q96GD4); assay: Aurora B kinase assay (DELFIA); type: biochemical; details: 15 μM ATP
T2 construct: purchased ProQinase
Description: Aurora activity was determined using a Dissociative Enhanced Lanthanide Fluoro Immuno Assay (DELFIA) with a GSK3-derived biotinylated peptide. The amount of phosphorylated peptide produced is quantified by means of a phospho-specific primary antibody and europium-labelled anti-rabbit IgG antibody using time-resolved fluorescence at λex=337 nm, λem=620 nm.
Assay reactions are set up in 96 well plates in a total reaction volume of 25 μl with 5 nM AuroraB (ProQinase), 3 μM Biotin-[…], 15 μM ATP and various dilutions of compound in 25 mM TRIS pH 8.5, 0.1 mg/ml BSA, 0.025% Surfact-Amps 20, 5 mM MgCl2, 1 mM DTT, & 2.5% DMSO. The reaction is allowed to proceed for 90 minutes at room temperature before stopping with 100 μl STOP buffer containing 100 mM EDTA, 0.05% Surfact-amps20 (Pierce) and 1× Blocker™ BSA in TBS (Pierce).
The detection step was carried out as described for AuroraA.

T1 sequence (P06493 whole entry): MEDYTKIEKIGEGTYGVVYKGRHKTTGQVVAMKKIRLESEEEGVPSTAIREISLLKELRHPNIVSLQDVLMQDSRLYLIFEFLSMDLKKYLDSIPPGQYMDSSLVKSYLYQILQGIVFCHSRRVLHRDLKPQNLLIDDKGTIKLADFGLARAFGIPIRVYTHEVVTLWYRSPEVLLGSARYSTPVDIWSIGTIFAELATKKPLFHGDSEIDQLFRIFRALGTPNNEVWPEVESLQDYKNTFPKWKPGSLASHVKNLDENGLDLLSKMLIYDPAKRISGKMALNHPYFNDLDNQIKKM
T1 sequence (P14635 whole entry partner): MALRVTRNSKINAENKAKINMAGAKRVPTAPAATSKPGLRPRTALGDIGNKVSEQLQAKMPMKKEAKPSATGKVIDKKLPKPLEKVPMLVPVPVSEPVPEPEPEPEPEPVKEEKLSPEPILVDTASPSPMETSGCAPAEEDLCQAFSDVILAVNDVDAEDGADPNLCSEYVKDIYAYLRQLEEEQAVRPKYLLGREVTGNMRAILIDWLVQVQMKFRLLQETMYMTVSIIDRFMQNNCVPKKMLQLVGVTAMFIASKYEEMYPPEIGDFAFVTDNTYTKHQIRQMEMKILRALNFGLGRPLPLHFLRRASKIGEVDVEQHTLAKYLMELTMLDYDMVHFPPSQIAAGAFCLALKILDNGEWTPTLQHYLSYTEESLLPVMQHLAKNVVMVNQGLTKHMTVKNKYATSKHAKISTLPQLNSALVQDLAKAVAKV
T2 sequence (Q96GD4 whole entry): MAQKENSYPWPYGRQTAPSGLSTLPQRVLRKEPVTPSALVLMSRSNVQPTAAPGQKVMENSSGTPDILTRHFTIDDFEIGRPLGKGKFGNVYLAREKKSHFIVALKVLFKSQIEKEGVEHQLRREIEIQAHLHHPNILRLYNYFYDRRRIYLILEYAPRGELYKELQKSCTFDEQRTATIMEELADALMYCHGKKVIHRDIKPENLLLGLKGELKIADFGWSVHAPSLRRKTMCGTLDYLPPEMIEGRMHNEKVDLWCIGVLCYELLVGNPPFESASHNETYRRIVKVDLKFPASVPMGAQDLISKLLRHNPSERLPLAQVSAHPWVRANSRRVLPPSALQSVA
GSK3β (human), sequence (P49841 whole entry): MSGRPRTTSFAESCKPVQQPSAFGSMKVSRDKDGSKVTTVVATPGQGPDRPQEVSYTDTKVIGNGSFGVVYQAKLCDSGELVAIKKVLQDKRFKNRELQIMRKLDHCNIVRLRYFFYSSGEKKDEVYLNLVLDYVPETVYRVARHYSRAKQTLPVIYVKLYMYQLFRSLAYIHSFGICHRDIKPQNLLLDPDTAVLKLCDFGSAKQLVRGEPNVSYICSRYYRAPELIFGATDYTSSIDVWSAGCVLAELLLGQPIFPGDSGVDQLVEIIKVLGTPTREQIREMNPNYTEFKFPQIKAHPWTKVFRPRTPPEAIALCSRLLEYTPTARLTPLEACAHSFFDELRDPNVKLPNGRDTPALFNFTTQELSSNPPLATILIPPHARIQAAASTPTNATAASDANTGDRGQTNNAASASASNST

Question: With `O=C(Nc1scnc1-c1nc2ccc(CN3CCOCC3)cc2[nH]1)c1c(F)cccc1F` [Example 2, 2,6-difluoro-N-[4-(6-morpholin-4ylmethyl-1H-benzoimidazol-2-yl)-thiazol-5-yl]benzamide] as the molecule, how does the pIC50 [1] read?
Answer: > 5.00

Question: What about the pIC50 [2] of the same molecule?
Answer: > 5.00

Question: What about the pIC50 ([3]; HCT-116, 72 hours, Alamar Blue) of the same molecule?
Answer: > 6.00

Question: How did the pIC50 [2] turn out when `O=C(Nc1csnc1-c1nc2cc(CN3CCOCC3)ccc2[nH]1)c1c(F)cccc1F` [Example 3, 2,6-difluoro-N-[3-(5-morpholin-4-ylmethyl-1H-benzoimidazol-2-yl)-isothiazol-4-yl]-benzamide] was run?
Answer: > 5.00

Question: What about the pIC50 ([3]; HCT-116, 72 h) of the same molecule?
Answer: > 4.82

Question: What does the source list for `O=C(Nc1scnc1-c1nc2ccccc2[nH]1)c1c(F)cccc1F` [Example 1, N-[4-(1H-benzoimidazol-2-yl)-thiazol-5-yl]-2,6-difluoro-benzamide]?
Answer: pIC50 [1]: > 5.00; pIC50 [4]: > 6.00; pIC50 [2]: > 5.00; pIC50 ([3]; HCT-116, 72 hours, Alamar Blue): > 4.82; pIC50 [5]: > 7.00

Source: patent US20080312223A1, “Thiazole And Isothiazole Derivatives That Modulate The Activity Of CDK, GSK And Aurora Kinases” (ASTEX THERAPEUTICS LIMITED, priority 2004, published 2008)
